Consider 2 molecules from patent US7795218B2, “ADP-ribosyl transferase fusion variant proteins” (priority 2003, dated 2010).

Common to all, as to format: cell-based, human
Experiment [1] deals with HUVEC. Nature of the experiment: HUVEC tube formation on ECmatrix. As to conditions: 50 μM. As to the method:
FIG. 31 illustrates that SEQ ID NO: 10 decreases tube formation in HUVEC, wherein HUVEC were seeded on solidified ECmatrix™ without (Control) or with 10 μg/mL or 50 μg/mL of SEQ ID NO: 10 or the angiogenesis inhibitor Tranilast, cells were also incubated with 10 μM or 50 μM of the ROCK inhibitor Fasudil, capillary-like structures were visualized between 6 h to 20 h incubation, and wherein in (A) photographs were taken under phase contrast inverted microscope at 40× magnification and (B) quantification of tube length was reported as percentage of the length from untreated cells SEM (photographs and quantification are representative of at least 2 independent experiments analyzed in triplicate; symbols * and ** represent respectively significant (p<0.05) and highly significant (p<0.01) difference from untreated cells);
Referring to FIG. 31, to evaluate the importance of the signalling pathway Rho-Rock in angiogenesis, Transilat (10 μg/ml and 50 μg/ml) is used as a positive control. Transilat is known to block one of the principal angiogenesis routes i.e. the VEGF pathway. The binding of VEGF to VEGF-R stimulates tyrosine auto-phosphorylation of one of the receptors which initiates a signalling pathway, in part through PKC. Tranilast acts by inhibiting VEGF dependent PKC activation. […]

Experiment [2] has as its system HUVEC. Nature of the experiment: HUVEC proliferation (Alamar blue). Conditions: up to 100 μg/mL (or μM), 24 hr or 72 hr. How it is done:
FIG. 32 illustrates that SEQ ID NO: 10 affects HUVEC proliferation at high concentration, wherein HUVEC were plated in 96 wells (collagen 1-coated) and incubated during 24 h or 72 with 0 to 100 μg/mL (or μM) of SEQ ID NO: 10, Fasudil or Tranilast, cells from 4 h and 24 h were washed out and replenished with fresh media containing no test compounds and left until 72 hours, and at the end of treatment (72 hours) Alamar blue was added, incubated for 4 hours and fluorescence was measured. Proliferation is represented in a graph as a percentage of that from untreated cells (0 μg/mL)±S.D. and represents 2 independent studies analyzed in triplicate;
Given that SEQ ID NO: 10 efficiently ribosylates RhoA and therefore inhibits its activity under these conditions, it appears that the proliferation of HUVEC in this system, along with this part of the angiogenic sequence, proceeds independently of RhoA activity. In contrast, HUVEC proliferation seems to depend on Rho kinase activity as well as on the activity of those targets, possibly including protein kinase C, blocked by Tranilast.

The subject of experiment [3] is HUVEC. Nature of the experiment: VEGF-dependent HUVEC migration (transwell). Conditions: 20 hours. How it is done:
FIG. 33 illustrates that SEQ ID NO: 10 can modify VEGF-dependent HUVEC migration, wherein in (A) HUVEC were seeded into 24-well-fibronectin-coated transwell chambers containing SEQ ID NO: 10, Fasudil or Tranilast, migration was stimulated for 20 hours with 10 ng/mL of VEGF with or without test compound, migrated cells were measured by fluorescence using Calcein-AM as a probe, and in (B) HUVEC were pre-treated for 24 hours with 50 μg/mL of SEQ ID NO: 10 prior to the start of migration (results are expressed as a percentage of that from untreated cells stimulated with VEGF±SEM and represent 4 independent experiments analyzed in duplicate; symbols * and *** represent, respectively, significant (p<0.05) and highly significant (p<0.001) difference from untreated cells+VEGF (Control+VEGF); symbol # # # represents significant difference (p<0.001) from untreated cells−VEGF (Control−VEGF));
Another cellular function and part of the angiogenic process that is known to be perturbed by Rho GTPase inhibition is endothelial cell migration. In order to evaluate the effect of SEQ ID NO: 10 on HUVEC migration, cells are seeded in the upper side of a transwell insert along with the desired test compounds, and migration is then induced with 10 ng/mL of VEGF at the bottom side of the insert. After 20 hours of migration, cells that pass through the membrane of the insert are labeled with calcein AM probe and detected via fluorescence. […].

As for `O=S(=O)(c1cccc2cnccc12)N1CCCNCC1` [Fasudil], the “decrease of tube formation” value with HUVEC [1] came to 58%. Further, the HUVEC proliferation result in the experiment with HUVEC [2] is on record as “significant (p<0.01) reductions in HUVEC cell proliferation”. In addition, in the experiment on HUVEC [3] (50 μM), the “decrease of VEGF-induced HUVEC migration” value was found to be 66%.

As for `COc1ccc(/C=C/C(=O)Nc2ccccc2C(=O)O)cc1OC` [Tranilast], the “decrease of VEGF-induced HUVEC migration” value is recorded as 45% in the experiment on HUVEC [3] (10 μg/mL) and 72% with HUVEC [3] (50 μg/mL).
